Laboratory results from article PMC12203697, “Bioactive constituents from the edible seaweed Halymenia hawaiiana (Rhodophyta)” (Pharmaceutical Biology, 2025).
Values after ≈ are worked out from the molar mass of the structure shown. Where a name gives a salt, the structure may show the parent alone. Read-outs that look alike come from different tables or passages of the source.

Columns and labels:
[1] = Ferric-reducing antioxidant power (FRAP) assay
Protocol: The FRAP assay was used to evaluate antioxidant activity based on the ability of the sample to reduce Fe^3+-TPTZ (2,4,6-tris(2-pyridyl)-S-triazine) to Fe^2+-TPTZ (Benzie and Strain [1996]). This reduction results in a color change from colorless to blue. The absorbance was measured at 593 nm using a Microplate Reader (BioTek ELx800 Instruments Inc. Winooski, Vermont, USA) with the Gen 5 software for FRAP value calculations. A ferrous sulfate heptahydrate (FeSO4 · 7H2O) (Cat. No. 215422, Sigma-Aldrich, USA) standard curve, ranging from 1000 µM to 50 µM, was prepared for the assay. The FRAP reagent consists of 300 mM sodium acetate buffer (pH 3.6) (Cat. No. 90358, Sigma-Aldrich, USA), 10 mM TPTZ solution (Cat. No. T1253, Sigma-Aldrich, USA), and 20 mM ferric (III) chloride hexahydrate (FeCl3 · 6H2O) (Cat. No. 236489, Sigma-Aldrich, USA) in a 10:1:1 ratio, respectively, and heated to 37 °C for ten minutes before use. A blank was measured at 593 nm with 150 µL FRAP reagent added to each well of a 96-well microtiter plate. Samples (20 µL of each sample) (1, 0.5, 0.25 mg/mL) and ascorbic acid (Sigma-Aldrich, Cat. No. A4403) positive control (1 mg/mL) were added in triplicates. Reducing capacity was expressed by FRAP values in an µM FeSO4/µg sample unit.

[2] = test system: A549 human lung carcinoma epithelial cells; assay: SRB cytotoxicity assay, A549 cells; details: SRB assay; for cytotoxic response against A549 cells (in words): 72 h, highest concentration tested 100 µg/ml
Protocol: After incubation, cells were fixed with trichloroacetic acid (Cat. No. T4885, Sigma-Aldrich, USA), stained with SRB (Cat. No. S9012, Sigma-Aldrich, USA), and the absorbance was measured at 515 nm. Percent cell death was calculated using the following equation: % Cell death=(ODc−OD0)‐(ODs−OD0)/(ODc−OD0)×100
OD0 = Optical density of cells before treatment (baseline reading).
ODC = Optical density of untreated control cells after 72 h.
ODS = Optical density of cells treated with the test sample after 72 h.
Non-linear regression analysis was performed using GraphPad Prism to calculate the IC50 value. This value reflects the concentration needed to inhibit cell growth by 50%.
All data are presented as mean ± standard error of the mean (SEM) and were collected from three separate experiments. Statistical analyses were conducted using Student’s t-test or ANOVA, followed by Tukey’s multiple comparisons test. Significance is indicated by *p < 0.05, **p < 0.01, and ***p < 0.001.

[3] = test system: LPS-induced nitric oxide (NO) production in RAW 264.7 cells; assay: Inhibition of NO generation in LPS-induced RAW 264.7 cells (Griess); assay type: cell-based, murine; details: RAW 264.7 cells
Protocol: The nitrite concentration in the culture medium was measured to indicate nitric oxide (NO) production as previously described (Min et al. [2009]). The murine macrophage RAW 264.7 cell line was obtained from ATCC, Manassas, VA, USA, and maintained in Dulbecco’s modified Eagle’s medium supplemented with 10% heat-inactivated FBS (Cat. No. A5670801, Gibco BRL Co, Grand Island, NY, USA), penicillin G (100 units/mL) (Cat. No. P7794, Sigma-Aldrich, USA), streptomycin (100 µg/mL) (Cat. No. S9137, Sigma-Aldrich, USA), and L-glutamine (2 mM) (Cat. No. 25030081, Gibco BRL Co, Grand Island, NY, USA). In brief, RAW 264.7 cells were seeded at a density of 4 × 10^4 cells/well in phenol red-free media (Cat. No. 11835030, Gibco, USA) in a 96-well plate, and incubated in a humidified incubator with 5% CO2 at 37 °C for 24 hr. […] The concentration of nitric oxide production was assessed using the Griess reagent, which consists of a 1:1 (v/v) mixture of 1% sulfanilamide (Cat No. A13001, Alfa Aesar, Massachusetts, USA) in H3PO4 and N-(1-naphthyl)ethylenediamine dihydrochloride (Cat. No. 102397, MP Biomedicals, USA). Absorbance was recorded with a microplate reader (SynergyMx, BioTeK, Winooski, VT, USA) at 540 nm. A standard curve was created using sodium nitrite (1–100 μM) (Cat. No. 44227, Alfa Aesar, Massachusetts, USA). A sulforhodamine B (SRB) assay was employed to assess the cellular viability of the samples with RAW 264.7 cells under a similar experimental setup. The final % inhibition of NO production was adjusted based on cell viability.

[4] = test system: S. aureus CART817; assay: Antibacterial MIC, broth microdilution with resazurin; assay type: cell-based; details: Staphylococcus aureus
Protocol: (§1) The minimum inhibitory concentrations (MICs) were determined using a two-fold serial dilution method with MHB following the recommendations of the Clinical and Laboratory Standards Institute (CLSI [2012]; Elshikh et al. [2016]). In brief, serial two-fold dilutions of the samples in DMSO were mixed with MHB in a 96-well microplate. Then, 50 µL of bacteria suspension was added to each well, resulting in a final concentration of 1 × 10^4 colony-forming units/well. The plates were incubated at 35–37 °C for 18–24 hr. After incubation, 10 µL of 0.18% resazurin (Cat. No. R7017, Sigma-Aldrich, USA) was added to each well (Elshikh et al. [2016]). The MIC was assessed within 2–3 hr after the addition of resazurin. All antimicrobial assays were performed in triplicate, using vancomycin (Cat. No. SBR00001, Sigma-Aldrich, USA) and gentamicin (Cat. No. G1397, Sigma-Aldrich, USA) as standard controls.

[5] = test system: MRSA HBP10; assay: as above; assay type: cell-based, Staphylococcus aureus
Description: (§2) Methicillin-resistant Staphylococcus aureus (MRSA), methicillin-susceptible S. aureus (MSSA), and Gram-negative clinical isolates of bacteria [Escherichia coli (9637) and Serratia marcescens ATCC 13880] were used for this study. […] MSSA HBP10, MSSA LUU7, MSSA R113, S. aureus ONE9, and MSSA POB2 were isolated in Hawaiʻi (Gerken et al. [2021]). Mueller Hinton Broth (MHB, GTIN:00382902979630, Becton, Dickinson and Company, Franklin Lakes, NJ, USA) and Mueller Hinton Agar (MHA, GTIN:00382902252504, Becton, Dickinson and Company, Franklin Lakes, NJ, USA,) were used for bacterial inoculation. MRSA was a pathogen strain causing hospital-acquired infections in 1982. This strain easily acquires resistance to antibiotics, such as vancomycin. MSSA strains isolated from the Island of Hawaiʻi included: Honolʻii Beach Park (HBP10) carry the genes erm(C), aph(3′)-III, and mecA, which provide resistance to macrolide, aminoglycoside, and beta-lactam antibiotics, respectively; Wailuku River (LUU7) which contains the blaZ gene (beta-lactam resistance) (Gerken et al. [2021]). Richardson’s Beach Park (R113) and Onekahakaha (ONE9) which is known for its virulence factors (hlgA, hlgB, hlgC, lukD, and lukE).
as §1

[6] = test system: MRSA POB2; assay: as above; assay type: cell-based, Staphylococcus aureus
Description: as §2, §1

[7] = test system: S. aureus NEWMAN; assay: as above; assay type: cell-based, Staphylococcus aureus; details: Staphylococcus aureus
Description: as §2, §1

[8] = test system: E. coli; assay: as above; assay type: cell-based; details: Escherichia coli, Gram-negative
Description: as §2, §1

[9] = test system: MRSA USA300; assay: as above; assay type: cell-based; details: Staphylococcus aureus
Description: as §2, §1

[10] = test system: MSSA LUU7; assay: as above; assay type: cell-based; details: Staphylococcus aureus
Description: as §2, §1

[11] = test system: MSSA R113; assay: as above; assay type: cell-based; details: Staphylococcus aureus
Description: as §2, §1

[12] = test system: S. aureus 8325-4; assay: as above; assay type: cell-based; details: Staphylococcus aureus, 83254
Description: as §2, §1

[13] = test system: S. aureus ONE9; assay: as above; assay type: cell-based; details: Staphylococcus aureus
Description: as §2, §1

[14] = test system: S. marcescent; assay: as above; assay type: cell-based, Serratia marcescens; details: Gram-negative
Description: as §2, §1

[15] = Serratia marcescens, read-out: MIC

## O=C1O[C@H]([C@@H](O)CO)C(O)=C1O [Ascorbic acid, ascorbic acid, reference compound]
[1]; FeSO4 standard curve
  FRAP: 2847.40 µM
[1]; µM FeSO4/µg sample
  FRAP: 35.59 ± 0.09 µM/µg
[1]; µM FeSO4/µg sample, listed as ascorbic acid
  FRAP: 35.59 µM/µg

## Nc1ncnc2c1ncn2[C@H]1C[C@H](O)[C@@H](CO)O1 [Compound 2, deoxyadenosine]
[2]
  cytotoxic response against A549 cells (in words): no cytotoxic response
[3]; LPS-induced, highest concentration 50 μg/mL
  NO inhibitory activity (in words): no significant NO inhibitory activity
[4]; S. aureus CART817, Gram-positive, read-out: MIC
  MIC: 128 µg/mL (≈ 509 µM)
[5]; Staphylococcus aureus, MRSA HBP10, Gram-positive, read-out: MIC
  MIC: 128 µg/mL (≈ 509 µM)
[6]; Staphylococcus aureus, MRSA POB2, Gram-positive, read-out: MIC
  MIC: 128 µg/mL (≈ 509 µM)
[7]; S. aureus NEWMAN, Gram-positive, read-out: MIC
  MIC: 128 µg/mL (≈ 509 µM)
[8]
  MIC: 128 µg/mL (≈ 509 µM)
[9]; MRSA USA300, Gram-positive, read-out: MIC
  MIC: 128 µg/mL (≈ 509 µM)
[10]; MSSA LUU7, Gram-positive, read-out: MIC
  MIC: 128 µg/mL (≈ 509 µM)
[11]; MSSA R113, Gram-positive, read-out: MIC
  MIC: 128 µg/mL (≈ 509 µM)
[12]; S. aureus 8325-4, Gram-positive, read-out: MIC
  MIC: 128 µg/mL (≈ 509 µM)
[13]; S. aureus ONE9, Gram-positive, read-out: MIC
  MIC: 128 µg/mL (≈ 509 µM)
[14]; [15]
  MIC: 64 µg/mL (≈ 255 µM)

## CCCCCCCCCCCCCCCC(C)=O [Compound 4, 2-heptadecanone]
[5]; MRSA HBP10, Gram-positive
  MIC: Inactive
[6]; MRSA POB2, Gram-positive
  MIC: Inactive
[14]
  MIC: Inactive

## CCCCCCCCCCCCCCCC(=O)O [Compound 5, palmitic acid]
[2]
  cytotoxic response against A549 cells (in words): inactive
[1]; FeSO4 standard curve
  FRAP: 88.06 µM
[1]; µM FeSO4/µg sample
  FRAP: 1.10 ± 0.02 µM/µg
[5]; MRSA HBP10, Gram-positive
  MIC: Inactive
[6]; MRSA POB2, Gram-positive
  MIC: Inactive
[14]
  MIC: Inactive

## CCCCCCCCCCCCCCCC(=O)OC [Compound 6, methyl palmitate]
[1]; FeSO4 standard curve
  FRAP: 499.40 µM
[1]; µM FeSO4/µg sample
  FRAP: 6.24 ± 0.07 µM/µg
[5]; MRSA HBP10, Gram-positive
  MIC: Inactive
[6]; MRSA POB2, Gram-positive
  MIC: Inactive
[14]
  MIC: Inactive

## CCCCCCCCC1CC1CCCCCCCC(=O)O (stereo not drawn) [Compound 7, dihydrosterculic acid]
[1]; FeSO4 standard curve
  FRAP: 230.06 µM
[1]; µM FeSO4/µg sample
  FRAP: 2.88 ± 0.03 µM/µg
[5]; MRSA HBP10, Gram-positive
  MIC: Inactive
[6]; MRSA POB2, Gram-positive
  MIC: Inactive
[14]
  MIC: Inactive

## CCCCCCCC/C=C/CCCCCCC(O)C(=O)OC (stereo not drawn) [Compound 8, methyl (9E)-2-hydroxy-9-octadecenoate]
[5]; MRSA HBP10, Gram-positive
  MIC: Inactive
[6]; MRSA POB2, Gram-positive
  MIC: Inactive
[14]
  MIC: Inactive

## CNC(C)C1CCC(N)C(OC2C(N)CC(N)C(OC3OCC(C)(O)C(NC)C3O)C2O)O1 (stereo not drawn) [Gentamicin, gentamicin, reference compound]
[8]
  MIC: 0.25 µg/mL (≈ 0.523 µM)
[14]; [15]
  MIC: 0.25 µg/mL (≈ 0.523 µM)

## [H]/N=C(/NC)NCCC[C@H](N)C(=O)O [L-NMMA, L-N-Monomethyl Arginine citrate, reference compound]
[3]; Mus musculus, RAW264.7, LPS 1 μg/mL, adjusted for cell viability, read-out: IC50, inhibition of LPS-induced NO production
  IC50: 43.5 ± 1.8 µM

## CN[C@H](CC(C)C)C(=O)N[C@H]1C(=O)N[C@@H](CC(N)=O)C(=O)N[C@H]2C(=O)N[C@H]3C(=O)N[C@H](C(=O)N[C@H](C(=O)O)c4cc(O)cc(O)c4-c4cc3ccc4O)[C@H](O)c3ccc(c(Cl)c3)Oc3cc2cc(c3O[C@@H]2O[C@H](CO)[C@@H](O)[C@H](O)[C@H]2O[C@H]2C[C@](C)(N)[C@H](O)[C@H](C)O2)Oc2ccc(cc2Cl)[C@H]1O [Vancomycin, vancomycin, reference compound]
[4]; CART817
  MIC: 1 µg/mL (≈ 0.69 µM)
[5]; Staphylococcus aureus, MRSA
  MIC: 1 µg/mL (≈ 0.69 µM)
[6]; Staphylococcus aureus, MRSA
  MIC: 0.5 µg/mL (≈ 0.345 µM)
[7]; NEWMAN
  MIC: 0.5 µg/mL (≈ 0.345 µM)
[9]
  MIC: 0.5 µg/mL (≈ 0.345 µM)
[10]; MSSA
  MIC: 0.5 µg/mL (≈ 0.345 µM)
[11]; MSSA
  MIC: 0.5 µg/mL (≈ 0.345 µM)
[12]
  MIC: 0.5 µg/mL (≈ 0.345 µM)
[13]; ONE9
  MIC: 0.5 µg/mL (≈ 0.345 µM)

## N.N.[Cl][Pt][Cl] [cisplatin, Cisplatin, reference compound]
[2]; read-out: IC50, cytotoxicity against A549 cells, 72 h exposure
  IC50: 4.2 ± 0.3 µM
